Experiment: The compound was evaluated for time dependent inhibitory activity against Lipoprotein associated Phospholipase A2 (Lp-PLA2) enzyme after 10 min incubation.

SMILES | IC50 [µM]
CCCCCCCCCCCCCCCCNC(=O)/C=C1/OC(=O)N2CCC[C@H]12 | 0.012
CCCCCCCCCCC[C@H](CC(=O)NC(=O)/C=C1/OC(=O)N2CCCC12)O[C@@H]1O[C@@H](C)[C@H](O)[C@@H](O)[C@H]1O (stereo partly drawn) | 0.051
CCCCCCCCCCCCCCCCNC(=O)/C=C1/OC(=O)N2CCC[C@@H]12 | 0.025
CCCCCCCCCCCCCCNC(=O)/C=C1/OC(=O)N2CCC[C@@H]12 | 0.028
CCCCCCCCCCCCNC(=O)/C=C1/OC(=O)N2CCC[C@@H]12 | 0.17

Experiment: The compound was evaluated for time dependent inhibitory activity against Lipoprotein associated Phospholipase A2 (Lp-PLA2) enzyme after 10 min incubation; Inactive; call rule not given here

SMILES | IC50
CCCCCCCCCCCCCCC#C/C=C1/OC(=O)N2CCC[C@@H]12 | Not Active
CCCCCCCC(=O)OCCCCC#C/C=C1/OC(=O)N2CCC[C@@H]12 | Not Active
O=C1O/C(=C/C#CCCCCO)[C@@H]2CCCN12 | Not Active

— ChEMBL document CHEMBL1133300, “Natural product derived inhibitors of lipoprotein associated phospholipase A2, synthesis and activity of analogues of SB-253514” (Bioorg Med Chem Lett, 2000)
